Entries after “also recorded” stand apart in the source; their conditions may differ.
Key:
[1] = test system: Drosophila Notch N^EC/N^TM heterodimer; assay: Tethering of N^EC to N^TM in Notch expressing S2 cells (supernatant Western blot, sucrose density centrifugation); assay type: cell-based; details: for dissociation of N^EC and N^TM: calcium ion chelators
Protocol: Briefly, Drosophila S2 cells were induced to express Notch with the addition of 0.7 mM CuSO4 for 16 hours; Notch expression was under the control of the metallothionien promoter (Fehon et al., 1990, Cell 61:523-534). The cells were washed once with 20 mM Tris-HCl, 150 mM NaCl, 2 mM CaCl2 (TBS/Ca^2+) and were resuspended in TBS/Ca^2+ or in 20 mM Tris-HCl, 150 mM NaCl. 2 mM EDTA (TBS/EDTA) and incubated for one hour at room temperature under slow rocking. The cells were centrifuged and pelleted and the supernatants were collected for SDS-PAGE and Western blot analysis. The blot was probed with a monoclonal antibody directed to the extracellular domain of Notch, specifically against EGF-like repeats 5-7 of Drosophila Notch (clone C461.3B). This monoclonal was detected using goat anti-mouse horseradish peroxidase secondary antibody and chemiluminescent substrate.
The extracts were sedimented through a 5-20% sucrose gradient in the above-respective buffers (without the protease inhibitors) in a Beckman SW50.1 rotor at 34,000 rpm for 16 hours at 4° C. Fractions were collected and precipitated with 10% trichloroacetic acid. The protein pellets were resuspended in SDS-PAGE sample buffer and analyzed by SDS-PAGE and Western blotting. Blots were probed with a mixture of monoclonal antibodies C461.3B and 9C6 (directed against the intracellular domain of Notch) and detected as described above.

human Notch2 = assay: Pulse chase labeling of Notch2 processing in SJ-NB5 cells; assay type: cell-based; details: for breakdown (cleavage, processing) of full-length Notch: [35S] pulse 20 min and chase at 37° C., immunoprecipitated by PGHN, Brefeldin A 10 μg/ml; for appearance of N^EC: pulse labeling
Protocol: SJ-NB5 cells were grown on 60 mm petri dishes until ˜80% confluent, washed once with PBS, and then incubated in methionine and cysteine free DMEM medium for 1 hr. 100 μCi^35S-translabled Met-Cys (ICN) was added to each plate, pulsed at 37° C. for 20 minutes, and chased for varying times and temperatures. The chase began by adding 2× volume complete medium plus 100 μg/ml cold methionine and cysteine to the plates. For Brefeldin A samples, Brefeldin A was maintained at a final concentration of 10 μg/ml in starvation medium as well as in both pulse and chase. Cells were washed with cold PBS and lysed in lysis buffer (Zagouras et al., 1995, Proc. Natl. Acad. Sci. USA 92:6414-6418) containing 1 mM Pefabloc SC, 0.7 μg/mlpepstatin A, and 0.5 μg/ml leupeptin. Cell lysates were centrifuged at 14,000 rpm for 5 minutes. The supernatants were transferred to fresh tubes and pre-cleared by incubating with 5 μl normal rabbit serum and 50 μl 10% protein A-sephrose CL-4B (Pharmacia LKB) for 1 hr at 4° C. The beads were pelleted by centrifugation and the supernatants were divided into two equal aliquots. One aliquot was immunoprecipitated by incubating with rabbit polyclonal anti-human Notch2 antibody PGHN and 50 μl protein A-sephrose CL-4B for 2-3 hrs or overnight at 4° C. The other aliquot was immunoprecipitated by normal rabbit serum as control. The beads were washed three times in RIPA buffer B (150 mM NaCl, 1% NP40, 0.5% DOC, 0.1% SDS, 50 mM Tris, pH 7.5); washed once in 50 mM Tris-Cl, 150 mM NaCl, pH 7.5; resuspended in 50 μl SDS-sample buffer; boiled; and subjected to a 3-15% gradient SDS-PAGE. The gel was fixed in 25% iso-propanol, 10% acetic acid for 30 minutes, soaked in Amplify™ (Amersham) for 15-30 minutes, dried, and exposed to X-ray film at −70° C.
In an attempt to determine the cellular compartment where Notch is cleaved, pulse labeling analyses were carried out in the presence of drugs that are known to interfere with cellular trafficking.

Notch/Delta = assay: Co-immunoprecipitation of N^TM with Delta antibodies after Notch/Delta cell aggregation; assay type: cell-based, Drosophila; details: aggregation disrupted by depleting calcium from the medium; data not shown
Protocol: Human neuroblastoma (SJ-NB5) cells were grown at 37° C. in an atmosphere of 5% CO2/95% air, in RPMI (Gibco-BRL, Grand Island, N.Y.) supplemented with 10% fetal bovine serum (Gibco BRL, Grand Island, N.Y.), 2 mM L-Glutamine (ICN Biomedicals, Inc., Costa Mesa, Calif.), 100 μg/ml penicillin, and 100 μg/ml streptomycin (ICN Biomedicals, Inc., Costa Mesa, Calif.). Cells were dissociated using phosphate buffered saline (PBS) with 0.25% trypsin and 0.03% EDTA (J. T. Baker, Inc., Phillipsburg, N.J.), and subcultured at ratios of 1:3 to 1:10. HaCat Cells (cultured human keratinocytes) were a gift from Dr. Michael Reiss (Yale University). Aggregation experiments and the maintenance of Drosophila S2 and KC cells were as described in Fehon et al., 1990, Cell 61:523-534.
The biological significance of the heterodimeric Notch form would be questionable if it could not bind ligands. […] If the heterodimeric form interacts with Delta after aggregation then the 110 kd N^TM fragment should co-immunoprecipitate using Delta antibodies.

SMILES: O=C(O)CN(CCN(CC(=O)O)CC(=O)O)CC(=O)O [EDTA]
- N^EC in the supernatant of Notch expressing S2 cells ([1]; 2 mM EDTA, Tris-HCl saline buffer, one hour at room temperature, Western blot): N^EC is present in the supernatant
- sedimentation of N^EC and N^TM in sucrose density centrifugation ([1]; S2 cell extracts, TBS/EDTA with 1% Triton X-100, 5-20% sucrose gradient): sediment separately
- dissociation of N^EC and N^TM [1]: dissociate

SMILES: C[C@H]1CCC/C=C/[C@@H]2C[C@H](O)C[C@H]2[C@H](O)/C=C/C(=O)O1 [Brefeldin A]
- breakdown (cleavage, processing) of full-length Notch (human Notch2): effectively blocks the breakdown of full-length Notch; also recorded: blocked; also recorded: inhibit the cleavage of Notch
- appearance of N^EC (human Notch2): is inhibited

SMILES: CCN(CC)CCCC(C)Nc1ccnc2cc(Cl)ccc12 (stereo not shown) [chloraquinone]
- breakdown (cleavage, processing) of full-length Notch (human Notch2): do not affect processing
- appearance of N^EC (human Notch2): not inhibited

SMILES: CC[C@@]1([C@@H]2O[C@@H]([C@H]3O[C@@](O)(CO)[C@H](C)C[C@@H]3C)C[C@@H]2C)CC[C@H]([C@]2(C)CC[C@]3(C[C@H](O)[C@@H](C)[C@@H]([C@@H](C)[C@@H](OC)[C@H](C)C(=O)O)O3)O2)O1 [monensin]
- breakdown (cleavage, processing) of full-length Notch (human Notch2): do not affect processing
- appearance of N^EC (human Notch2): not inhibited

SMILES: OCCS [β-mercaptoethanol]
- sensitivity of the N^EC/N^TM interaction to reducing agents [1]: sensitive

SMILES: O=C(O)CN(CCOCCOCCN(CC(=O)O)CC(=O)O)CC(=O)O [EGTA]
- dissociation of N^EC and N^TM [1]: dissociate
- precipitation of N^TM by Delta antibodies (Notch/Delta): fail to efficiently precipitate N^TM

SMILES: O[C@H](CS)[C@H](O)CS (racemic) [dithiothreitol (DTT), dithiothreitol]
- sensitivity of the N^EC/N^TM interaction to reducing agents [1]: sensitive

— patent US20110028383A1, “Activated Forms Of Notch And Methods Based Thereon” (priority 1997, published 2011)
